Where two headings read alike, the source gives them in different places.
How the values were obtained:
P. aeruginosa isolates = test: MIC against a range of isolates in CAA + […] human serum (Table 11); type: cell-based, Pseudomonas aeruginosa; conditions: Pseudomonas aeruginosa
[1] = tested on: carbapenem-resistant P. aeruginosa strains; test: Resensitization of carbapenem-resistant strains, combinations with imipenem or meropenem (Tables 18-22); type: cell-based, Pseudomonas aeruginosa; conditions: for MIC: Pseudomonas aeruginosa
[2] = tested on: P. aeruginosa isolate CFS 1558 (PA20); type: in vivo
Experimental: A rabbit pulmonary model was used to assess the efficacy of the GN370 lysin alone and in combination with an antibiotic (meropenem). Initially, rabbits were infected intratracheally with P. aeruginosa isolate CFS 1558 (PA20) (3×10^9 CFU). Treatment commenced 6 hours post-infection.

P. aeruginosa (PA20) = test: Rabbit infective endocarditis model (Tables 28-32, FIGS. 5-8); type: in vivo, Pseudomonas aeruginosa in rabbits; conditions: Meropenem 5 mg/kg
Experimental: Initially, a polyethylene catheter was placed into the rabbits' right ventricle and secured. 48 hours after catheter placement, rabbits were infected intravenously with P. aeruginosa (PA20) (6×10^9 CFU/mL). Treatment commenced 24 hours post-infection.
Data were analyzed using the Kruskal-Wallis method for multiple comparison and then adjusted with a false discovery rate approach (Benjamini-Hochberg method), using StatsDirect Software. A p-value of <0.05 was considered statistically significant.

[3] = tested on: 15 P. aeruginosa isolates; test: MIC of GN370 in dog, human, rabbit and rat serum and CAAT; meropenem in CAMHB (Table 33); type: cell-based, Pseudomonas aeruginosa; conditions: Pseudomonas aeruginosa, CAMHB
[4] = in combination with GN123, isolate PA19
[5] = in combination with GN123, isolate PA20
[6] = in combination with GN123, isolate PA21
[7] = in combination with GN123, isolate PA22
[8] = in combination with GN123, isolate PA23
[9] = in combination with GN123, isolate PA24
[10] = in combination with GN123, isolate WC-452

SMILES: C[C@@H](O)[C@H]1C(=O)N2C(C(=O)O)=C(S[C@@H]3CN[C@H](C(=O)N(C)C)C3)[C@H](C)[C@H]12 [Meropenem, meropenem, reference compound]
- MIC (P. aeruginosa isolates; ATCC17646, read-out: Meropenem MIC, strain CFS 1109 (ATCC 17646)): 0.5 µg/mL
- MIC (P. aeruginosa isolates; ATCC27853, read-out: Meropenem MIC, strain CFS 1766 (ATCC 27853)): 1 µg/mL
- MIC (P. aeruginosa isolates; PA1, read-out: Meropenem MIC, strain CFS1539 (PA1)): 16 µg/mL
- MIC (P. aeruginosa isolates; read-out: Meropenem MIC, strain CFS 1292): 32 µg/mL
- MIC (P. aeruginosa isolates; read-out: Meropenem MIC, strain CFS 1540 (PA2)): 16 µg/mL
- MIC (P. aeruginosa isolates; read-out: Meropenem MIC, strain CFS 1541 (PA3)): 8 µg/mL
- MIC (P. aeruginosa isolates; read-out: Meropenem MIC, strain CFS 1557 (PA19)): 32 µg/mL
- MIC (P. aeruginosa isolates; read-out: Meropenem MIC, strain CFS 1558 (PA20)): 16 µg/mL
- MIC (P. aeruginosa isolates; read-out: Meropenem MIC, strain CFS 1559 (PA21)): > 32 µg/mL
- MIC (P. aeruginosa isolates; read-out: Meropenem MIC, strain CFS 1560 (PA22)): 16 µg/mL
- MIC (P. aeruginosa isolates; read-out: Meropenem MIC, strain CFS 1561 (PA23)): 16 µg/mL
- MIC (P. aeruginosa isolates; read-out: Meropenem MIC, strain CFS 1562 (PA24)): > 32 µg/mL
- MIC (P. aeruginosa isolates; read-out: Meropenem MIC, strain CFS 1596 (PA26)): 0.5 µg/mL
- MIC (P. aeruginosa isolates; read-out: Meropenem MIC, strain CFS 1597 (PA27)): 1 µg/mL
- MIC (P. aeruginosa isolates; read-out: Meropenem MIC, strain CFS 1669 (PA41)): < 0.25 µg/mL
- MIC (P. aeruginosa isolates; read-out: Meropenem MIC, strain CFS 1674 (PA46)): 4 µg/mL
- MIC (P. aeruginosa isolates; read-out: Meropenem MIC, strain CFS 1675 (PA47)): 4 µg/mL
- MIC ([1]; isolate PA19): 32 µg/mL
- MIC ([1]; isolate PA20): 16 µg/mL
- MIC ([1]; isolate PA21): 32 µg/mL
- MIC ([1]; isolate PA22): 16 µg/mL
- MIC ([1]; isolate PA23): 16 µg/mL
- MIC ([1]; isolate PA24): 32 µg/mL
- MIC ([1]; isolate WC-452): 16 µg/mL
- antibiotic MIC, Combination ([1]; in combination with GN121, isolate PA19): 1 µg/mL
- antibiotic MIC, Combination ([1]; in combination with GN121, isolate PA20): 1 µg/mL
- antibiotic MIC, Combination ([1]; in combination with GN121, isolate PA21): 2 µg/mL
- antibiotic MIC, Combination ([1]; in combination with GN121, isolate PA22): 1 µg/mL
- antibiotic MIC, Combination ([1]; in combination with GN121, isolate PA23): 2 µg/mL
- antibiotic MIC, Combination ([1]; in combination with GN121, isolate PA24): 1 µg/mL
- antibiotic MIC, Combination ([1]; in combination with GN121, isolate WC-452): 1 µg/mL
- antibiotic MIC, Combination [1, 4]: 0.5 µg/mL
- carbapenem susceptibility class, Combination [1, 4]: (S) ((S) = sensitive)
- antibiotic MIC, Combination [1, 5]: 0.5 µg/mL
- carbapenem susceptibility class, Combination [1, 5]: (S) ((S) = sensitive)
- antibiotic MIC, Combination [1, 6]: 1 µg/mL
- carbapenem susceptibility class, Combination [1, 6]: (S) ((S) = sensitive)
- antibiotic MIC, Combination [1, 7]: 1 µg/mL
- carbapenem susceptibility class, Combination [1, 7]: (S) ((S) = sensitive)
- antibiotic MIC, Combination [1, 8]: 0.5 µg/mL
- carbapenem susceptibility class, Combination [1, 8]: (S) ((S) = sensitive)
- antibiotic MIC, Combination [1, 9]: 2 µg/mL
- carbapenem susceptibility class, Combination [1, 9]: (S) ((S) = sensitive)
- antibiotic MIC, Combination [1, 10]: 1 µg/mL
- carbapenem susceptibility class, Combination [1, 10]: (S) ((S) = sensitive)
- carbapenem susceptibility class, Combination ([1]; in combination with GN351, vs. WC-452): (S) ((S) = sensitive)
- carbapenem susceptibility class, Combination ([1]; in combination with GN370, vs. WC-452): (S) ((S) = sensitive)
- carbapenem susceptibility class, Combination ([1]; in combination with GN428, vs. WC-452): (S) ((S) = sensitive)
- carbapenem susceptibility class, antibiotic Alone ([1]; isolate PA19): R ((R) = resistant)
- carbapenem susceptibility class, antibiotic Alone ([1]; isolate PA20): R ((R) = resistant)
- carbapenem susceptibility class, antibiotic Alone ([1]; isolate PA21): R ((R) = resistant)
- carbapenem susceptibility class, antibiotic Alone ([1]; isolate PA22): R ((R) = resistant)
- carbapenem susceptibility class, antibiotic Alone ([1]; isolate PA23): R ((R) = resistant)
- carbapenem susceptibility class, antibiotic Alone ([1]; isolate PA24): R ((R) = resistant)
- carbapenem susceptibility class, antibiotic Alone ([1]; isolate WC-452): R ((R) = resistant)
- Antibiotic MIC / Lysin MIC, Alone ([1]; vs. WC-452 (Table 22)): 16
- decrease of mean bacterial density in lungs ([2]; agent alone, compared to the starting CFU and the vehicle control group): about 2 log10 CFU/g
- Bacterial burden, Kidneys ([2]; meropenem 20 mg/kg): 3.92 ± 0.63 log10 CFU/g
- Bacterial burden, Lung 1 ([2]; meropenem 20 mg/kg): 5.80 ± 0.88 log10 CFU/g
- Bacterial burden, Lung 2 ([2]; meropenem 20 mg/kg): 5.98 ± 1.14 log10 CFU/g
- Bacterial burden, Spleen ([2]; meropenem 20 mg/kg): 3.62 ± 0.21 log10 CFU/g
- Log10 CFU/g of vegetation ([2]; rabbit lung, Meropenem 20 mg/kg): 6.12 ± 0.89 Log10 CFU/g
- Bacterial burden, Mean (P. aeruginosa (PA20); cardiac vegetation): 7.22 log10 CFU/g
- Mean log10 CFU change v. 24 hr control (P. aeruginosa (PA20); cardiac vegetation): −0.68 log10 CFU
- Mean log10 CFU change v. vehicle (P. aeruginosa (PA20); cardiac vegetation): −0.13 log10 CFU
- Bacterial burden, Mean (P. aeruginosa (PA20); kidney tissue): 4.64 log10 CFU/g
- Mean log10 CFU change v. 24 hr control (P. aeruginosa (PA20); kidney tissue): −1.32 log10 CFU
- Mean log10 CFU change v. vehicle (P. aeruginosa (PA20); kidney tissue): −0.55 log10 CFU
- Bacterial burden, Mean (P. aeruginosa (PA20); lung tissue): 3.75 log10 CFU/g
- Mean log10 CFU change v. 24 hr control (P. aeruginosa (PA20); lung tissue): −1.41 log10 CFU
- Mean log10 CFU change v. vehicle (P. aeruginosa (PA20); lung tissue): −1.25 log10 CFU
- Bacterial burden, Mean (P. aeruginosa (PA20); spleen tissue): 3.95 log10 CFU/g
- Mean log10 CFU change v. 24 hr control (P. aeruginosa (PA20); spleen tissue): −1.00 log10 CFU
- Mean log10 CFU change v. vehicle (P. aeruginosa (PA20); spleen tissue): −1.62 log10 CFU
- MIC ([3]; ATCC25668, read-out: MIC Meropenem, strain ATCC 25668): 2 µg/mL
- MIC ([3]; ATCC27853, read-out: MIC Meropenem, strain ATCC 27853): 0.5 µg/mL
- MIC ([3]; PA1, read-out: MIC Meropenem, strain PA1): 32 µg/mL
- MIC ([3]; read-out: MIC Meropenem, strain AR0231): 128 µg/mL
- MIC ([3]; read-out: MIC Meropenem, strain AR0241): > 256 µg/mL
- MIC ([3]; read-out: MIC Meropenem, strain AR0246): 32 µg/mL
- MIC ([3]; read-out: MIC Meropenem, strain PA2): 16 µg/mL
- MIC ([3]; read-out: MIC Meropenem, strain PA3): 8 µg/mL
- MIC ([3]; read-out: MIC Meropenem, strain PA19): 32 µg/mL
- MIC ([3]; read-out: MIC Meropenem, strain PA20): 32 µg/mL
- MIC ([3]; read-out: MIC Meropenem, strain PA22): 16 µg/mL
- MIC ([3]; read-out: MIC Meropenem, strain PA23): 16 µg/mL
- MIC ([3]; read-out: MIC Meropenem, strain PA24): > 32 µg/mL
- MIC ([3]; read-out: MIC Meropenem, strain PA27): 1 µg/mL
- MIC ([3]; read-out: MIC Meropenem, strain PA453): 64 µg/mL

Source: patent US20210324359A1, “USE OF GRAM-NEGATIVE LYSIN-ANTIMICROBIAL PEPTIDE (AMP) POLYPEPTIDE CONSTRUCTS IN TREATING ENDOCARDITIS” (priority 2020, published 2021)
